Test results from publication PMC10957570, “Coniferyl ferulate alleviate xylene-caused hematopoietic stem and progenitor cell toxicity by Mgst2” (Frontiers in Pharmacology, 2024).

Molecular target: T1, Mgst2 (Mus musculus, UniProt A2RST1)
T1 construct: native protein in lysate of CD117+ bone marrow cells, captured on CF chip and identified by LC-MS/MS
Experiment: SPR capture from cell lysate on CF chip, LC-MS/MS identification
Assay type: biochemical
Conditions: CD117+ bone marrow cell lysate; CF immobilised; excess free CF lowered total SPR signal

T1 sequence (A2RST1 whole entry): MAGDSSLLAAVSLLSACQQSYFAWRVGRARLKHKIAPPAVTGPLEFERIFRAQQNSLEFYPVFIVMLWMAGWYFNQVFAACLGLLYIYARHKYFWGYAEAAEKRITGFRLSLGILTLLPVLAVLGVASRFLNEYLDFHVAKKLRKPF

Q: How did the “SPR capture from cell lysate on CF chip, LC-MS/MS identification” value turn out when `COc1cc(/C=C/COC(=O)/C=C/c2ccc(O)c(OC)c2)ccc1O` [Coniferyl ferulate] was run?
A: we found that Mgst2 was one of the targets of CF
